How the values were obtained:
[1] = background statement; cited from earlier work
[2] = UV-Vis absorbance ratio of sterol/AmB (affinity comparison); format: binding; settings: for affinity ordering of these three sterols to AmB: FIG. 1, molar ratios from 1:1 to 20:1
Experimental: (1) Adding 23.1 mg Amphotericin B (AmB) to 5 ml dimethyl sulfoxide (DMSO), and then adding in 495 ml ionized water to prepare a mixture, and taking 10 ml volume out of the mixture; diluting the 10 volume with 30 ml 1% dimethyl sulfoxide (DMSO) solution to prepare 12.5 μM Amphotericin B (AmB) aqueous solution. (2) Adding 13 g n-propanol to 187 ml ionized water to prepare 6.5% n-propanol aqueous solution. (3) Adding 28.9 mg cholesterol to 19.5 g n-propanol, shaking them to completely dissolve cholesterol in n-propanol, and then adding in 280.5 gram ionized water to prepare 250 μM cholesterol aqueous solution. (4) Adding […] stigmasterol to 19.5 g n-propanol, shaking them to completely dissolve stigmasterol in n-propanol, and then adding in 280.5 gram ionized water to prepare 250 μM stigmasterol aqueous solution. (5) Adding 29.7 mg ergosterol to 19.5 g n-propanol, shaking them to completely dissolve ergosterol in n-propanol, and then adding in 280.5 gram ionized water to prepare 250 μM ergosterol aqueous solution. (6) Mixing 10 ml 12.5 μM AmB aqueous solution with 10 ml 250 μM cholesterol aqueous solution. The molar ratio of AmB/cholesterol is 1/20. The UV-Vis absorbance ratio A415nm/A350nm of AmB/cholesterol is 0.61 (scanning from 300 nm to 450 nm). (7) Mixing 10 ml 12.5 μM AmB aqueous solution, 5 ml 6.5% n-propanol aqueous solution and 5 ml 250 μM cholesterol aqueous solution. The molar ratio of AmB/cholesterol is 1/10. The UV-Vis absorbance ratio A415nm/A350nm of AmB/cholesterol is 0.59. (8) Mixing 10 ml 12.5 μM AmB aqueous solution, 7.5 ml 6.5% n-propanol aqueous solution and 2.5 ml 250 μM cholesterol aqueous solution. The molar ratio of AmB/cholesterol is 1/5. The UV-Vis absorbance ratio A415nm/A350nm of AmB/cholesterol is 0.60. (9) Mixing 10 ml 12.5 μM AmB aqueous solution, 9.5 ml 6.5% n-propanol aqueous solution and 0.5 ml 250 μM cholesterol aqueous solution. The molar ratio of AmB/cholesterol is 1/1. The UV-Vis absorbance ratio A415nm/A350nm of AmB/cholesterol is 0.49. (10) Measuring absorbance ratio of stigmasterol/AmB and ergosterol/AmB by the procedures with the same, the result is shown in FIG. 1.
(§1) Using UV-Vis spectroscopy to measure UV-Vis absorbance ratios of cholesterol-PEG600, stigmasterol-PEG600 and ergosterol-PEG600 prepared in Example I to AmB and UV-Vis absorbance ratios of cholesterol, stigmasterol and ergosterol to AmB. The results are as shown in FIG. 1 and FIG. 2, in which FIG. 1 is a curve diagram of A415nm/A350nm vs. sterol/AmB and FIG. 2 is a curve diagram of A415nm/A350nm vs. sterol-PEG600/AmB.

[3] = UV-Vis absorbance ratio of sterol-PEG/AmB (affinity comparison); format: binding; settings: for affinity ordering of sterol-PEG to AmB / variation of the UV-Vis absorbance ratios A415nm/A350nm: FIG. 2; for variation of the UV-Vis absorbance ratios A415nm/A350nm: for any mixing molar ratios with AmB
Experimental: (1) Adding 23.1 mg AmB aqueous solution to 5 ml dimethyl sulfoxide (DMSO), and then adding in 495 ml ionized water to prepare a mixture. Taking 10 ml volume out of the mixture, and diluting the 10 ml volume with 30 ml 1% dimethyl sulfoxide (DMSO) aqueous solution to prepare 12.5 μM AmB aqueous solution. (2) Adding 13 g n-propanol to 187 ml ionized water to prepare 6.5% n-propanol aqueous solution. (3) Adding 24.4 mg cholesterol-PEG600 to 6.5 g n-propanol, shaking them to completely dissolve cholesterol-PEG600 in n-propanol, and then adding in 93.5 g ionized water to prepare 250 μM cholesterol-PEG600 aqueous solution. (4) Adding […] stigmasterol-PEG600 to 6.5 g n-propanol, shaking them to completely dissolve stigmasterol-PEG600 in n-propanol, and then adding in 93.5 g ionized water to prepare 250 μM stigmasterol-PEG600 aqueous solution. (5) Adding 24.6 mg ergosterol-PEG600 to 6.5 g n-propanol, shaking them to completely dissolve ergosterol-PEG600 in n-propanol, and then adding in 93.5 g ionized water to prepare 250 μM ergosterol-PEG600 aqueous solution. (6) Mixing 10 ml 12.5 μM AmB and 10 ml 250 μM cholesterol-PEG600, the molar ratio of AmB/cholesterol-PEG600 is 1/20. The UV-Vis absorbance ratio A415nm/A350nm of AmB/cholesterol is 0.40 (scanning from 300 nm to 450 nm). (7) Mixing 10 ml 12.5 μM AmB, 5 ml 6.5% n-propanol and 5 ml 250 μM cholesterol-PEG600. The molar ratio of AmB/cholesterol-PEG600 is 1/10. The UV-Vis absorbance ratio of A415nm/A350nm of AmB/cholesterol-PEG600 is 0.44. (8) Mixing 10 ml 12.5 μM AmB, 7.5 ml 6.5% n-propanol and 2.5 ml 250 μM cholesterol-PEG600. The molar ratio of AmB/cholesterol-PEG600 is 1/5. The UV-Vis absorbance ratio of A415nm/A350nm of AmB/cholesterol-PEG600 is 0.48. (9) Mixing 10 ml 12.5 μM AmB, 9.5 ml 6.5% n-propanol and 0.5 ml 250 μM cholesterol-PEG600. The molar ratio of AmB/cholesterol-PEG600 is 1/1. The UV-Vis absorbance ratio of A415nm/A350nm of AmB/cholesterol-PEG600 is 0.48. (10) Measuring absorbance ratio of stigmasterol-PEG600/AmB and ergosterol-PEG600/AmB by the procedures with the same, the result is shown in FIG. 2.
as §1

C[C@@H]1[C@H](O)[C@@H](C)/C=C/C=C/C=C/C=C/C=C/C=C/C=C/[C@H](O[C@@H]2O[C@H](C)[C@@H](O)[C@H](N)[C@@H]2O)C[C@@H]2O[C@](O)(C[C@@H](O)C[C@@H](O)[C@H](O)CC[C@@H](O)C[C@@H](O)CC(=O)O[C@H]1C)C[C@H](O)[C@H]2C(=O)O [Amphotericin B]
affinity for ergosterol of fungal cells compared with that for cholesterols of mammal [1]: ten times better

CC(C)CCC[C@@H](C)[C@H]1CC[C@H]2[C@@H]3CC=C4C[C@@H](O)CC[C@]4(C)[C@H]3CC[C@]12C [cholesterol]
affinity ordering of these three sterols to AmB [2]: cholesterol<stigmasterol<ergosterol
UV-Vis absorbance ratio A415nm/A350nm ([2]; molar ratio of AmB/cholesterol 1/1): 0.49
UV-Vis absorbance ratio A415nm/A350nm ([2]; molar ratio of AmB/cholesterol 1/5): 0.60
UV-Vis absorbance ratio A415nm/A350nm ([2]; molar ratio of AmB/cholesterol 1/10): 0.59
UV-Vis absorbance ratio A415nm/A350nm ([2]; molar ratio of AmB/cholesterol 1/20, scanning from 300 nm to 450 nm): 0.61
UV-Vis absorbance ratio A415nm/A350nm ([3]; molar ratio of AmB/cholesterol-PEG600 1/20, scanning from 300 nm to 450 nm): 0.40

CC(C)[C@@H](C)/C=C/[C@@H](C)[C@H]1CC[C@H]2C3=CC=C4C[C@@H](O)CC[C@]4(C)[C@H]3CC[C@]12C [ergosterol]
affinity ordering of these three sterols to AmB [2]: cholesterol<stigmasterol<ergosterol

CC[C@H](/C=C/[C@@H](C)[C@H]1CC[C@H]2[C@@H]3CC=C4C[C@@H](O)CC[C@]4(C)[C@H]3CC[C@]12C)C(C)C [stigmasterol]
affinity ordering of these three sterols to AmB [2]: cholesterol<stigmasterol<ergosterol

cholesterol-PEG600
affinity ordering of sterol-PEG to AmB [3]: ergosterol-PEG600>stigmasterol-PEG600>cholesterol-PEG600
variation of the UV-Vis absorbance ratios A415nm/A350nm [3]: insignificant
UV-Vis absorbance ratio A415nm/A350nm ([3]; molar ratio of AmB/cholesterol-PEG600 1/1): 0.48
UV-Vis absorbance ratio A415nm/A350nm ([3]; molar ratio of AmB/cholesterol-PEG600 1/5): 0.48
UV-Vis absorbance ratio A415nm/A350nm ([3]; molar ratio of AmB/cholesterol-PEG600 1/10): 0.44

ergosterol-PEG600
affinity ordering of sterol-PEG to AmB [3]: ergosterol-PEG600>stigmasterol-PEG600>cholesterol-PEG600
variation of the UV-Vis absorbance ratios A415nm/A350nm [3]: insignificant

stigmasterol-PEG600
affinity ordering of sterol-PEG to AmB [3]: ergosterol-PEG600>stigmasterol-PEG600>cholesterol-PEG600
variation of the UV-Vis absorbance ratios A415nm/A350nm [3]: insignificant

Reference: US20090220599A1, “Antifungal formulation and manufacturing method thereof” (Industrial Technology Research Institute, priority 2003, published 2009)
